Values of other authors as cited in patent US20140271529A1, “ANTIFUNGAL COMPOSITIONS FOR THE TREATMENT OF SECONDARY SKIN AND NAIL INFECTIONS” (ALC Therapeutics, LLC, priority 2013, published 2014).

What was measured:
[1] = 14C-labelled griseofulvin dissolved in the solvent; human skin in vitro
[2] = human, in vivo

Row | Compound | ratios of penetration of griseofulvin in the various solvents [1] | acute paronychia, patients affected [2] [%]
1 | C[S+](C)[O-] [DMSO, dimethylsulfoxide] | 60 | 
2 | CCO [alcohol] | 3 | 
3 | c1ccccc1 [benzene] | 1 | 
4 | CN(C)C=O [dimethylformamide] | 7 | 
5 | panitumumab |  | ≤ 45
